{
  "source": "patent US9278914B2",
  "about": "“SARMs and method of use thereof” (UNIVERSITY OF TENNESSEE RESEARCH FOUNDATION, priority 2004, dated 2016)",
  "assay": "Metabolic stability measured in human liver microsomes",
  "format": "in vitro ADME",
  "method": "Microsome reactions were performed under either Phase I or “Phase I and II” conditions, where indicated. Compound stocks (10 mM ACN) were initially initially diluted to a concentration of 60 μM (in 60% ACN/H2O) resulting in a “working stock” stock” solution of 100×. Human liver microsomes were utilized at a final concentration of 0.6 mg/ml. Duplicate wells were used for each time point (0, 6, 10, 30, and 60 minutes). Reactions were carried out at 37° C. in a shaking water bath, and the final concentration of solvent was kept constant at 0.6%. The final volume for each reaction was 600 μl, comprised of […] of 100 mM KPO4 buffer, (pH 7.4); 12.6 μl of HLM (from a 20 mg/ml stock); 6 μl of 100×“working stock” drug compound, and 126 μl of NRS “master mix” solution. At each time point, 100 μl of reaction was removed and added to a sample well containing 100 μl of ice-cold, 100% ACN (plus internal standards), to stop the reaction. The NRS “master mix” is a solution of glucose-6-phosphate dehydrogenase, NADP^+, MgCl2, and glucose-6-phosphate, prepared per manufacturer's instructions (BD Biosciences, Waltham, Mass.). Each 6.0 ml stock of NRS “master mix” solution contains 3.8 […], 1.0 ml solution “A” (Cat. #461220), and 0.2 ml solution “B” (Cat. #461200). Human liver microsomes (lot #0610279, Xenotech Corp.) represented a pool of 60 donors. donors.\nSamples were centrifuged at 3,000 rpm for 10 minutes at 4° C. to remove debris and precipitate protein. Approximately 160 μl of supernatant was subsequently transferred to a new sample block for analysis. The concentration of parent drug remaining in each well (expressed as percent remaining versus Time ‘0’, at the beginning of the reaction) was measured by LC/MS, as detailed below.\nAll samples were analyzed on the MDS/Sciex API4000 Q Trap system with electrospray ionization (ESI) in the positive or negative SIM mode, depending on the compounds. The mobile phases were isocratic at 30% A (0.1% formic acid in water) and 70% B (0.1% formic acid in acetonitrile) with a flow rate of 0.4 mL/min. A Phenomenex Luna Phenyl-Hexyl column (60×2.0 mm ID, 6μ) was used. The injection volume was 10 μL. The total run time per sample was 1.6 to 3.0 minutes. […] The percentage of parent drug compound remaining after each time point was determined relative to the initial measured concentration at the beginning of the reaction (T0 min).\nFor half-life determination, data was fitted using GraphPad Prism, v 4.03 with the non-linear regression equation “one phase exponential decay” defined as: Y=Span*exp(−K*X)+Plateau (decays to Plateau with a first-order rate constant, K). […] Intrinsic Clearance (μl/min/mg protein) is defined as: CLint=0.693*(1/T1/2)*(ml incubation/mg protein)*1000; This equation can also be expressed as (K*1000)/microsome concentration.",
  "data": [
    {"smiles": "C[C@](O)(COc1ccc(Cl)c(F)c1)C(=O)Nc1ccc(C#N)c(C(F)(F)F)c1", "note": "[S-II, (S)-3-(4-chloro-3-fluorophenoxy)-N-(4-cyano-3-(trifluoromethyl)phenyl)-2-hydroxy-2-methylpropanamide]", "values": [
      {"measurement": "CLint (ul/min/mg) Phase I + II", "setting": "Phase I + II", "value": "<1", "unit": "µL/min/mg"},
      {"measurement": "Half Life (minutes) Phase I + II", "setting": "Phase I + II, 0.6 μM", "value": "Stable"},
      {"measurement": "Half Life (minutes) Phase I only", "setting": "Phase I only, 0.6 μM", "value": "Stable"},
      {"measurement": "microsomal CLint at 0.6 μM", "setting": "human, human liver microsomes, pH 7.4, Phase I only, read-out: CLint (ul/min/mg) Phase I only", "value": "< 1", "unit": "µL/min/mg"}
    ]}
  ]
}
